Data on one molecule can be found in patent US12065404B2, “C4-carboxylic acid-substituted tryptamine derivatives and methods of using” (priority 2022, dated 2024).

Each structure is given as a SMILES string. Several values for one entry are separate records, joined by “and”; a condition that tells them apart may be missing. Equal values may be shown once.

Data set [1] can be described thus: Stability in enzyme-free control buffer. It is filed as physicochemical. The conditions noted are these: pH 7.4. An excerpt: (§1) A fundamental evaluation in drug development is the assessment of absorption, distribution, metabolism, excretion, and pharmacokinetics (ADME/PK) (Eddershaw et al., 2000, Drug Discovery Today 5(9): 409-414). […] Drug stability upon exposure to human liver microsomes and liver S9 cellular fractions is a common in vitro assay to approximate in vivo, liver-based drug metabolism (Richardson et al., 2016 Drug Metabolism Letters 10:83-90). First-pass metabolism is also often approximated in vitro using intestinal microsome and cellular S9 fractions (Hatley et al., 2017, Biopharmaceuticals & Drug Disposition, 38(2):155-160). […] Supernatants were analyzed for the presence of candidate prodrugs (parent molecule) and psilocin (the predicted metabolite) using Orbitrap LC-MS (Thermo Scientific) using previously described methods (Menendez-Perdomo et al., 2021, J Mass Spectrom, 56: e4683). […] Assay concentrations (μM) of both parent ‘prodrug’ molecule and psilocin metabolite, as quantified through LC-MS using routine standard curve procedures, were plotted as functions of assay time (minutes). The metabolism rate (T1/2) was determined from the metabolism curve plot using the one phase decay feature of GraphPad PRISM software (Version 9.2.0). The quantity of parent prodrug at time zero was set as 100%.

A short description of data set [2]: Mouse pharmacokinetic (PK) study, parent compound and psilocin metabolite in plasma. Format: in vivo, C57Bl/6 mice. The conditions noted are these: mouse; for Plasma concentration of psilocin: 24 h. An excerpt:
Briefly, the procedure was as follows. […] 19, 2022.

A short description of data set [3]: In vitro metabolic stability / psilocin release, AB serum. Format: in vitro ADME. Particulars: 10% human AB serum.
Excerpt: as §1, with “100%. […]” for “100%.”

Data set [4] can be described thus: In vitro metabolic stability / psilocin release, liver fractions (HLM, HLS9). It is filed as in vitro ADME, human. The conditions noted are these: HLM and HLS9, 2 hours, 37° C.
Excerpt: as §1, with “100%. […]” for “100%.”

Take `CN(C)CCc1c[nH]c2cccc(OP(=O)(O)O)c12` [psilocybin, reference compound]: the “Stability in assay buffer” value in data set [1] was “stability of psilocybin was confirmed in assay buffer”. The tmax in data set [2] (male, C57Bl/6, plasma, iv, 1 mg/kg i.v., individual animals, read-out: tmax of administered (parent) compound) came out at 5 min. The “Detectability of administered compound in plasma, i.v. administered animals” value in data set [2] (1 mg/kg i.v.) is “only detectable in i.v. administered animals”. In data set [2] (oral, any dose (1, 3, 10 mg/kg)), the “Detectability of administered compound in plasma, orally administered animals” value is reported as “not detectable in orally administered animals at any dose”. Further, the “Plasma concentration of administered (parent) compound” value is 19.7 ng/mL and 76.8 ng/mL and 334 ng/mL in data set [2] (1 mg/kg i.v., 5 min, individual animals, 1 mg/kg); 3.32 ng/mL and 8.95 ng/mL and 27.2 ng/mL in data set [2] (1 mg/kg i.v., 0.25 h, individual animals, 1 mg/kg); “No Peak and 2.35 ng/mL and 6.21 ng/mL” in data set [2] (1 mg/kg i.v., 0.5 h, individual animals, 1 mg/kg); “No Peak” in data set [2] (1 mg/kg i.v., 1 h, individual animals, 1 mg/kg); “No Peak” in data set [2] (1 mg/kg i.v., 2 h, individual animals); “No Peak” in data set [2] (1 mg/kg i.v., 4 h, individual animals). Further, the “Plasma concentration of administered (parent) compound” value in data set [2] (1 mg/kg i.v., 6 h, individual animals) was “No Peak”; in data set [2] (1 mg/kg i.v., 8 h, individual animals, 1 mg/kg), “No Peak”. The “tmax of administered (parent) compound” value in data set [2] (1 mg/kg i.v., individual animals) worked out at 5 min; in data set [2] (1 mg/kg i.v., mean ± SD), 5 ± 0 min. The “Cmax of administered (parent) compound” value was 19.7 ng/mL and 76.8 ng/mL and 334 ng/mL in data set [2] (1 mg/kg i.v., individual animals, 1 mg/kg); 144 ± 167 ng/mL in data set [2] (1 mg/kg i.v., mean ± SD). Besides, the “Plasma concentration of psilocin” value in data set [2] (prodrug 1.56 mg/kg oral (nominal 1 mg/kg), individual animals) is recorded as “BLQ (BLQ denotes below the lower limit of quantitation (0.2 ng/ml).)”; in data set [2] (prodrug 3 mg/kg oral, individual animals), “BLQ (BLQ denotes below the lower limit of quantitation (0.2 ng/ml).)”. Moreover, in data set [3], the “Stability / conversion to psilocin in serum” value is given as “stable in serum with no conversion to psilocin”. The “Stability / conversion to psilocin in liver fractions” value in data set [4] was “stable in liver fractions with no conversion to psilocin”.
